Assay results reported in patent US9994824B2, “Method for promoting hair growth using composition comprising PDGF-D treated adipose-derived stem cells” (INDUSTRY-ACADEMIC COOPERATION FOUNDATION, YONSEI UNIVERSITY, priority 2015, dated 2018).

Columns and labels:
BCL2A1 = BCL2A1 mRNA expression (PCR array, qPCR); assay type: cell-based, human; settings: PDGF-D-treated ASCs plus inhibitor
Procedure: (§1) In this example, PDGF-D target genes were examined using a human signaling pathwayfinder RT^2 profiler PCR array (signaling pathway: PAHS-041ZD).
(§2) 2.5×10^5 of ASCs were seeded on 60-mm dishes, cultured in a 0.2% FBS-containing α-MEM medium, and treated with PDGF-D for 4-24 hours. Afterward, total RNA was extracted using an RNA extraction kit (RNeasy, Qiagen), cDNA was synthesized from 500 ng of total RNA by a cDNA synthesis kit (A3500, Promega) using 1,000 U reverse transcriptase and 50 ng/μl oligo(dT) primers. Gene expression was detected by a PCR array kit (Qiagen) according to the manufacturer's instructions, and qPCR was performed on a step one plus real-time PCR system (Applied Biosystems, Invitrogen) using a SYBR Green PCR master mix (Takara Bio, Japan).

ASCs [1] = test: cell proliferation assay (CCK-8 cell numbers); assay type: cell-based, human; settings: for proliferation of ASCs increased by PDGF-D, effect of inhibitor: inhibitor treatment of PDGF-D-treated ASCs
Procedure: (§3) Human ASCs were obtained from a subcutaneous fat by liposuction according to a known method (Kim et al. J Dermatol Sci 53:96-102, 2009). ASCs were cultured in an α-MEM medium (Hyclone, Thermo Scientific) with 10% FBS (GIBCO, Invitrogen) and 1% penicillin/streptomycin (GIBCO) at 37° C. in 5% CO2, and cells at 7-9 passages were used. Positive expression of CD44, CD73, CD90, CD105, HLA-1 and PODXL and negative expression of CD34 and CD45 were examined by flow cytometry (Kim et al. Cell Death Dis 4:e588, 2013; Kim et al., Cell Biol Int 38:32-40, 2014), and multipotent differentiation potential for the cells to differentiate into adipocytes, osteocytes and cartilage cells was examined (Song et al. Stem Cells Dev 17:451-461, 2008).
For cell proliferation assay, 7×10^3 of ASCs were seeded on 48-well plates, 24 hours later, a medium was transferred with a 0.2% FBS-containing α-MEM medium, and the following day, cells were treated with PDGF isoforms (10 ng/ml) for 48 hours. Afterward, the medium was removed, the cells were treated with a 10% CCK-8 solution for 2 hours using a CCK-8 assay kit (Dojindo, Japan), and the absorbance was measured at 450 nm, to examine cell numbers.

ASCs [2] = test: cell migration assay (trans-well); assay type: cell-based, human; settings: for migration of ASCs increased by PDGF-D, effect of inhibitor: inhibitor treatment of PDGF-D-treated ASCs
Procedure: as §3
Also, for cell migration assay, 2×10^4/well of ASCs were seeded on the upper portion of a trans-well membrane plate (Corning, USA). After 2 hours, PDGF isoforms (10 ng/ml) and an α-MEM medium with 0.2% FBS were introduced to the lower portion of the trans-well membrane plate to culture the PDGF isoforms for 16 to 20 hours. Afterward, cells migrated to the trans-well membrane were fixed with cold ethanol for 20 minutes, and stained with 10% crystal-violet (Sigma, USA) at room temperature for 30 minutes.

[3] = test system: growth factors VEGFA, FGF1, FGF5, BMP8B, LIF, INHBA, IL11 and HBEGF; test: growth factor expression (RT2 profiler PCR array of human growth factor, qPCR); assay type: cell-based
Procedure: Then, the paracrine effect of PDGF families was examined using an RT^2 profiler PCR array of a human growth factor (growth factor pathway: PAHS-041ZA).
The growth factor expression was measured by an RT^2 profiler PCR array (FIG. 9A).

SERPINE1 = SERPINE1 mRNA expression (PCR array, qPCR); assay type: cell-based, human; settings: PDGF-D-treated ASCs plus inhibitor
Procedure: as §1, §2

ROS generation in ASCs = test: intracellular ROS generation using DCF-DA; assay type: cell-based, human; settings: PDGF-D-treated ASCs plus inhibitor
Procedure: ROS generation in cells were measured by a method using DCF-DA (Molecular probe, USA) (Kim et al., Stem Cells Dev 21:2212-2221, 2012; Kim et al., Stem Cells Dev 20:1753-1761, 2011), and mitochondrial ROS generation was measured using Mito-Sox (Molecular probe, USA). ASCs were seeded on 60-mm dishes, treated with PDGF-D (10 ng/ml) and 5 μM Mito-Sox and incubated in a dark place for 2 hours, and then flow cytometry was performed.

mitochondria of ASCs = test: mitochondrial fission (MitoTracker Red, confocal microscope); assay type: cell-based, human; settings: PDGF-D-treated ASCs plus inhibitor
Procedure: ASCs were seeded on a round cover glass and treated with PDGF-D (10 ng/ml) for 24 hours. For mitochondrial staining, 500 nM MitoTracker Red (Molecular Probe, USA) was added to an α-MEM medium, and cells were incubated for 30 minutes, and then the morphology of mitochondria and MitoTracker Red fluorescence were examined using a confocal microscope (Carl Zeiss). In addition, for nuclear staining, cells were fixed with 4% paraformaldehyde for 15 minutes, permeabilized with 0.5% PBS-T for 5 minutes, and stained with DAPI (Sigma, USA) at room temperature for 10 minutes.

| Molecule | BCL2A1 expression, effect of inhibitor (BCL2A1) | proliferation of ASCs increased by PDGF-D, effect of inhibitor (ASCs [1]) | migration of ASCs increased by PDGF-D, effect of inhibitor (ASCs [2]) | SERPINE1 expression, effect of inhibitor (SERPINE1) | DCF-DA fluorescence, effect of inhibitor/scavenger (ROS generation in ASCs) | also measured |
| --- | --- | --- | --- | --- | --- | --- |
| S=C(S)N1CCCC1 [PDTC] | decreased | – | – | – | – | – |
| N#CC(=C(/N)Sc1ccccc1N)/C(C#N)=C(\N)Sc1ccccc1N [U0126] | – | not influenced | not influenced | – | – | expression of a growth factor induced by PDGF-D, effect of inhibitor (PCR array) ([3]; 10 μM inhibitor, RT2 profiler PCR array): inhibited; expression of the growth factor induced by PDGF-D, effect of inhibitor (qPCR) ([3]; qPCR): inhibited |
| CC1(C)CC(C(=O)OCCCCCCCCCC[P+](c2ccccc2)(c2ccccc2)c2ccccc2)C(C)(C)N1O (stereo not drawn) [Mito-CP] | no influence | considerably decreased | considerably decreased | considerably decreased | considerably decreased | – |
| COCCOc1ccc2c(c1)ncn2-c1ccc2cccc(N3CCC(N)CC3)c2n1 [cp673451] | decreased | – | – | decreased | considerably decreased | – |
| COc1cc(-n2c(=S)[nH]c3ccccc3c2=O)c(Cl)cc1Cl [Mdivi-1] | – | considerably decreased | considerably decreased | – | – | mitochondrial fission induced by PDGF-D treatment, effect of inhibitor (mitochondria of ASCs): decreased |
| PDGF-B: PDGF isoform growth factor protein, purchased from Sigma (protein, UniProt P01127 82-190, looked up) Platelet-derived growth …: SLGSLTIAEPAMIAECKTRTEVFEISRRLIDRTNANFLVWPPCVEVQRCSGCCNNRNVQCRPTQVQLRPVQVRKIEIVRKKPIFKKATVTLEDHLACKCETVAAARPVT | – | – | – | – | – | cell proliferation (cell numbers) (ASCs [1]; PDGF isoforms 10 ng/ml, 48 hours, 0.2% FBS α-MEM): considerably enhanced twice or more; cell migration (ASCs [2]; PDGF isoforms 10 ng/ml, 16 to 20 hours, 0.2% FBS α-MEM): considerably enhanced twice or more |
